The values below come from PubChem BioAssay (NCI).

Test in all cases: DTP human tumour cell line panel, 48 h
Test [1] concerns M14 melanoma.
In test [2] the test system is HCC-2998 colon.
The test system of test [3] is SN12C renal.
For test [4], the system named is SF-295 CNS.
Test [5] deals with RXF 393 renal.
The test system of test [6] is A498 renal.
Test [7] deals with SNB-19 CNS.
Test [8] has as its system HL-60(TB) leukemia.
Test [9] concerns U251 CNS.
The test system of test [10] is A549 NSCLC.

What is called GI50 is the concentration at which growth is held to half of that of the control. One may read the TGI as the concentration at which net growth stops.

Structures are written as SMILES.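 Cells were grown in 96-well plates and exposed to each compound for 48 hours at five concentrations; endpoints were interpolated linearly between bracketing concentrations, or set to the highest concentration if not reached. GI50 is the concentration that inhibits growth by half. Definition used: TGI = concentration required for complete inhibition of growth.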

For the compound `Cc1cnc(-c2ccc(-c3ccc(NC(=O)Nc4cccc(C(F)(F)F)c4)cc3F)c3c2C(=O)NC3)[nH]1`, the GI50 in [1] was 0.624 µM; in test [2], 28.2 µM; in [3], 0.304 µM; in test [4] it was 4.06 µM; in test [5] it was 2.42 µM; in [6], 0.115 µM. In addition, the GI50 in test [7] was 17.4 µM; in test [8], 43.4 µM; in test [9], 11.3 µM; in test [10], 7.49 µM. Also, the TGI in test [1] was 32.9 µM; in [2], over 59.2 µM; in test [3], 35.3 µM; in [4], 33.6 µM; in test [5], 21.3 µM; in test [6], 3.13 µM. Further, the TGI in test [7] is over 53.4 µM; in test [8], over 100 µM; in test [9] it was 32 µM; in test [10] it was over 47.9 µM.
As for `Cn1c2ccccc2c2c(=O)n(CCCC(=O)NCCc3cnc[nH]3)c3c(-c4ccccc4)nnn3c21`, the GI50 is 11.9 µM in test [1]; 9.51 µM in test [2]; 8.76 µM in test [3]; 9.18 µM in test [4]; 7.41 µM in [5]; 7.58 µM in [6]. In addition, the GI50 in [7] is 11.8 µM; in test [8], 11.8 µM; in test [9] it was 9.46 µM; in [10], 12.8 µM. In addition, the concentration for total growth inhibition (TGI) in [1] is 24.3 µM; in test [2] it was 19.7 µM; in test [3] it was 18.7 µM; in test [4], 17.8 µM; in test [5] it was 18.2 µM; in [6], 15.2 µM. For the same compound, the TGI in test [7] came out at 24.1 µM; in [8], 28.4 µM; in [9] it was 18.4 µM; in test [10], 24.2 µM.
Take `C=C1CCCC2OC(OC)CCC12` (centres undefined): the TGI in test [1], in test [2], in [3], in test [4], in test [5] and in test [6] was over 100 µM in each case. The TGI in test [7], in [8], in test [9] and in test [10] was over 100 µM throughout.
For the compound `CCN(CC)CCNc1ccc(N=Nc2cnc3ccccc3c2)c2ccccc12`, the GI50 in test [1] is 1.79 µM; in [2], 1.75 µM; in test [3] it was 1.64 µM; in test [4] it was 1.77 µM; in test [5] it was 1.88 µM; in test [6], 1.65 µM. Also, the GI50 was 2.06 µM in [7], 1.34 µM in test [8], 1.7 µM in test [9] and 1.92 µM in [10]. The TGI in [1] was found to be 3.29 µM; in test [2] it was 3.16 µM; in test [3], 3.16 µM; in test [4] it was 3.38 µM; in [5] it was 4.05 µM; in test [6], 3.05 µM. The TGI in [7] came to 3.97 µM; in test [8], 2.92 µM; in [9], 3.2 µM; in test [10] it was 3.5 µM.
As for `Fc1ccc(-c2c(-c3ccncc3)[nH]c3cccnc23)cc1`, the GI50 in test [1] was over 25 µM; in test [2], over 25 µM; in [3], 18.8 µM; in test [4], over 25 µM; in test [5], over 20.4 µM; in test [6], over 14.8 µM. Moreover, the GI50 is over 25 µM in test [7], over 25 µM in test [8], over 25 µM in test [9] and 17 µM in [10]. In addition, the TGI in [1], in test [2], in test [3], in [4], in [5] and in test [6] was over 25 µM throughout. Also, the total growth inhibition concentration (TGI) in [7], in [8], in test [9] and in [10] was over 25 µM in each case.
Take `C=C(C)C1CC=C(C)C(O)([C@@]2(O)C[C@H](C(=C)C)CC=C2C)C1` (some centres undefined): the TGI in [1] worked out at 39.9 µM; in test [2], 35.7 µM; in [3] it was 33.2 µM; in test [4] it was 48.5 µM; in test [5], 29.1 µM; in test [6], 58.2 µM. Besides, the TGI in [7] is over 100 µM; in test [8], 47.2 µM; in [9], 34.7 µM; in [10], over 100 µM.
`O=[N+]([O-])c1cc(C(F)(F)F)cc2n[se]nc12`: the TGI in test [1] came to 3.22 µM; in test [2] it was 10.2 µM; in test [3], 10.6 µM; in test [4], 25.8 µM; in [5] it was 4.91 µM; in test [6], 31.5 µM. In addition, the concentration for total growth inhibition (TGI) in test [7] stood at 29.5 µM; in test [8] it was 4.02 µM; in test [9] it was 29.5 µM; in test [10] it was 27 µM.
Consider `O=c1oc2ccc(I)cc2c(=O)n1-c1ccc(I)cc1F`, for which the GI50 was 0.545 µM in test [1]; 2.8 µM in [2]; 0.404 µM in [3]; 1.77 µM in test [4]; 0.861 µM in [5]; 0.166 µM in test [6]. In addition, the GI50 was 0.399 µM in test [7], 0.564 µM in [8], 0.612 µM in [9] and 3 µM in [10]. In addition, the TGI in [1] amounted to 5.87 µM; in test [2], 11.1 µM; in test [3], 6.49 µM; in test [4] it was 3.54 µM; in [5], 4.16 µM; in [6], 0.546 µM. Also, the values for the TGI in [7], in test [9] and in test [10] were over 100 µM, over 45.3 µM and over 51.8 µM, respectively.
As for `CN(C)C[C@@H]1CCn2cc(c3ccccc32)C2=C(C(=O)NC2=O)c2cn(c3ccccc23)CCO1`, the GI50 in test [1] was 1.03 µM; in test [2], 0.713 µM; in [3] it was 0.679 µM; in test [4] it was 3.3 µM; in test [5], 1.77 µM; in [6], 1.13 µM. Moreover, the GI50 in test [7] is 4.49 µM; in test [8], 1.6 µM; in test [9] it was 1.9 µM; in [10] it was 2.72 µM. In addition, the TGI in test [1] was over 10 µM; in test [2], over 10 µM; in test [3], 5.85 µM; in test [4], over 10 µM; in test [5], 5.17 µM; in test [6], 4.54 µM. Moreover, the TGI was over 10 µM in test [7], 3.75 µM in [8], over 10 µM in [9] and over 10 µM in test [10].
With `CCc1nc(N)nc(N)c1-c1ccc(N(C)Cc2ccccc2)c([N+](=O)[O-])c1`, the TGI in [1] is 11.3 µM; in test [2], 8.73 µM; in test [3], 41.7 µM; in test [4], 15.3 µM; in test [5], 22.9 µM; in test [6] it was 19.8 µM. For the same compound, the TGI is 37.3 µM in test [7], 5.88 µM in test [8], 24.5 µM in [9] and 16 µM in [10].
As to `CN(CCCCCCCCNc1ccnc2ccccc12)Cc1ccc(-c2ccc(-c3ccc(C#N)cc3)s2)cc1`, the GI50 in [1] is 0.443 µM; in test [2] it was 0.275 µM; in test [3] it was 1.37 µM; in test [4] it was 0.501 µM; in [5], 1.13 µM; in test [6], 1.22 µM. Besides, the GI50 in test [7] is 1.31 µM; in test [8], 1.15 µM; in test [9], 0.248 µM; in [10] it was 1.01 µM. The TGI came to 1.56 µM in test [1]; 1.04 µM in test [2]; 3 µM in test [3]; 1.26 µM in [4]; 2.54 µM in test [5]; 2.6 µM in test [6]. The TGI in [7] was determined as 2.79 µM; in [8] it was 2.93 µM; in [9], 0.842 µM; in test [10] it was 2.94 µM.
As to `Cc1c(C(=O)/C=C/c2ccc(Cl)cc2)nnn1-c1ccnc2c(C(F)(F)F)cccc12`, the GI50 was over 100 µM in test [1]; 72.8 µM in test [2]; 16.3 µM in [3]; 26.9 µM in [4]; 1.05 µM in test [5]; over 100 µM in test [6]. In addition, the GI50 in [7] is 33.9 µM; in test [8], 25.9 µM; in [9], 12.9 µM; in [10], 23.7 µM. Further, the TGI is over 100 µM in test [1]; over 100 µM in test [2]; over 100 µM in test [3]; over 100 µM in [4]; 34.1 µM in test [5]; over 100 µM in [6]. For the same compound, the TGI was over 100 µM in [7], over 100 µM in test [8], 47.8 µM in [9] and over 100 µM in test [10].
On to `CC(C)c1ccc(C(c2c(O)c3ccccc3oc2=O)c2c(O)c3ccccc3oc2=O)cc1`, for which the TGI in test [1] was 38.4 µM; in test [2], 35.2 µM; in [3], 48.6 µM; in [4], 52 µM; in test [5], 48.1 µM; in [6] it was 35.4 µM. For the same compound, the TGI turned out to be 49.9 µM in test [7], 26.3 µM in test [8], 30.1 µM in test [9] and 45.7 µM in [10].
